Laboratory results taken from ChEMBL document CHEMBL1201862, “PubChem BioAssay data set” (2004).
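Compound exposure: 48 hours, 5 concentrations, 96-well plates. GI50 = concentration required for 50% inhibition of growth.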 Activity calls are given as the source filed them. Cut-off read from the data, not from the text of the source: active = GI50 up to about 1.1 µM and inactive = higher.

How the values were obtained:
Assay in all cases: NCI anticancer screen, dose series, 48 h
Malme-3M = test system: Malme-3M
SK-OV-3 = test system: SK-OV-3
ACHN = test system: ACHN
UACC-62 = test system: UACC-62
HCT-15 = test system: HCT-15
HOP-92 = test system: HOP-92
T47D = test system: T47D
MDA-MB-231 = test system: MDA-MB-231
HCC 2998 = test system: HCC 2998
A549 = test system: A549
SR = test system: SR
HL-60 = test system: HL-60
EKVX = test system: EKVX
NCI-H460 = test system: NCI-H460
U-251 = test system: U-251
786-0 = test system: 786-0
K562 = test system: K562
PC-3 = test system: PC-3
SF-295 = test system: SF-295
OVCAR-4 = test system: OVCAR-4

Row | Compound | GI50 (Malme-3M) | GI50 (SK-OV-3) | GI50 (ACHN) | GI50 (UACC-62) | GI50 (HCT-15) [µM] | GI50 (HOP-92) | GI50 (T47D) | GI50 (MDA-MB-231) | GI50 (HCC 2998) | GI50 (A549) | GI50 (SR) | GI50 (HL-60) | GI50 (EKVX) | GI50 (NCI-H460) | GI50 (U-251) | GI50 (786-0) | GI50 (K562) | GI50 (PC-3) | GI50 (SF-295) | GI50 (OVCAR-4)
1 | CCN1CCC(O)(/C=C/c2cccc(C)c2)C(C(=O)/C=C/c2cccc(C)c2)C1 (stereo not given) | 1.57 µM (inactive) | 3.35 µM (inactive) | 1.59 µM (inactive) | 1.82 µM (inactive) | 2.25 | 2.17 µM (inactive) | 2.7 µM (inactive) | 3.35 µM (inactive) | 1.6 µM (inactive) | 2.29 µM (inactive) | 3.74 µM (inactive) | 61.4 µM (inactive) | 2.04 µM (inactive) | 2.12 µM (inactive) | 1.72 µM (inactive) | 2.26 µM (inactive) | 2.98 µM (inactive) | 13.3 µM (inactive) | 2.28 µM (inactive) | 4.31 µM (inactive)
2 | CC1(c2ccccc2)N=c2[nH]cnc2=C(C(N)=O)N1 (stereo not given) | > 100 µM (inactive) | > 100 µM (inactive) | > 100 µM (inactive) | > 100 µM (inactive) | > 100 | > 100 µM (inactive) | > 100 µM (inactive) | > 100 µM (inactive) | > 100 µM (inactive) | > 100 µM (inactive) | > 100 µM (inactive) | > 100 µM (inactive) | > 100 µM (inactive) | > 100 µM (inactive) | > 100 µM (inactive) | > 100 µM (inactive) | > 100 µM (inactive) | > 100 µM (inactive) | > 100 µM (inactive) | > 100 µM (inactive)
3 | COc1cc(C2c3cc4c(cc3OC(N3CCCC3)C2C)OCO4)cc(OC)c1OC (stereo not given) | 0.578 µM (active) | 0.628 µM (active) | 1.47 µM (inactive) | 0.509 µM (active) | 0.526 | 0.973 µM (active) | 63.1 µM (inactive) | 0.697 µM (active) | 1.34 µM (inactive) | 0.989 µM (active) | 0.32 µM (active) | 0.355 µM (active) | 3.53 µM (inactive) | 0.767 µM (active) | 0.644 µM (active) | 0.729 µM (active) | 0.361 µM (active) | 0.524 µM (active) | 0.303 µM (active) | 2.31 µM (inactive)
4 | Cc1cc2[nH]c(=NS(=O)(=O)c3cc(C)c(Cl)cc3S)[nH]c2cc1C | > 100 µM (inactive) | > 100 µM (inactive) | 73.8 µM (inactive) | > 100 µM (inactive) | 73.3 | > 100 µM (inactive) | 82.2 µM (inactive) | > 100 µM (inactive) | > 100 µM (inactive) | 35.7 µM (inactive) | 19.4 µM (inactive) | 28.7 µM (inactive) | 24.1 µM (inactive) | 16.9 µM (inactive) | 36.2 µM (inactive) | 61.7 µM (inactive) | 59.7 µM (inactive) | 66.4 µM (inactive) | 53.8 µM (inactive) | > 100 µM (inactive)
5 | CCN(CC)CCNC(=O)c1ccc(C)c(OCc2ccccc2)c1[N+](=O)[O-] | 16.9 µM (inactive) | 34.2 µM (inactive) | 56.8 µM (inactive) | 20.7 µM (inactive) | 21 | 24.9 µM (inactive) | 20.7 µM (inactive) | 35.6 µM (inactive) | 28.8 µM (inactive) | 44.8 µM (inactive) | 27.7 µM (inactive) | 19.5 µM (inactive) | 68.5 µM (inactive) | 36.6 µM (inactive) | 39.7 µM (inactive) | 33.3 µM (inactive) | 19.2 µM (inactive) | 45.3 µM (inactive) | 24.5 µM (inactive) | 56.8 µM (inactive)
6 | O=C1C=C(N2CCN(c3ncccn3)CC2)C(=O)c2c(O)ccc(O)c21 | 6.35 µM (inactive) | > 100 µM (inactive) | > 100 µM (inactive) | 16.2 µM (inactive) | > 100 | > 100 µM (inactive) | > 100 µM (inactive) | > 100 µM (inactive) | > 100 µM (inactive) | > 100 µM (inactive) | > 100 µM (inactive) | > 100 µM (inactive) | > 100 µM (inactive) | > 100 µM (inactive) | > 100 µM (inactive) | 53 µM (inactive) | > 100 µM (inactive) | > 100 µM (inactive) | > 100 µM (inactive) | > 100 µM (inactive)
7 | NCCc1c[nH]c2ccc(OC(=O)C(=O)O)cc12 | > 100 µM (inactive) | > 100 µM (inactive) | > 100 µM (inactive) | > 100 µM (inactive) | > 100 | > 100 µM (inactive) | > 100 µM (inactive) | > 100 µM (inactive) | > 100 µM (inactive) | > 100 µM (inactive) | > 100 µM (inactive) | 0.302 µM (active) | > 100 µM (inactive) | > 100 µM (inactive) | > 100 µM (inactive) | > 100 µM (inactive) | > 100 µM (inactive) | > 100 µM (inactive) | > 100 µM (inactive) | > 100 µM (inactive)
8 | COc1cc(C(=O)O[C@@H]2[C@@H](OC(=O)c3cc(OC)c(OC)c(OC)c3)[C@@H](OC)O[C@@H]3CO[C@@H](c4ccccc4)O[C@@H]23)cc(OC)c1OC | > 100 µM (inactive) | > 100 µM (inactive) | > 100 µM (inactive) | > 100 µM (inactive) | > 100 | > 100 µM (inactive) | > 100 µM (inactive) | > 100 µM (inactive) | > 100 µM (inactive) | > 100 µM (inactive) | > 100 µM (inactive) | > 100 µM (inactive) | > 100 µM (inactive) | > 100 µM (inactive) | > 100 µM (inactive) | > 100 µM (inactive) | > 100 µM (inactive) | > 100 µM (inactive) | > 100 µM (inactive) | > 100 µM (inactive)
9 | C=C1C(=O)OC2/C=C(/C)C(OC(C)=O)CC(O)/C(C)=C\C(OC(=O)/C(C)=C\C)C12 (stereo not given) | 14.3 µM (inactive) | > 100 µM (inactive) | 42.8 µM (inactive) | > 100 µM (inactive) | 36.6 | 43.6 µM (inactive) | 52.6 µM (inactive) | > 100 µM (inactive) | > 100 µM (inactive) | > 100 µM (inactive) | 26.7 µM (inactive) | 17 µM (inactive) | 78 µM (inactive) | > 100 µM (inactive) | > 100 µM (inactive) | 17.1 µM (inactive) | 35.2 µM (inactive) | > 100 µM (inactive) | > 100 µM (inactive) | > 100 µM (inactive)
10 | COC1=C(C)C(=O)C2=C(C1=O)C1C3CC4=C(C(=O)C(OC)=C(C)C4=O)C(CNC(=O)C(C)O)N3C(C#N)C(C2)N1C (stereo not given) | < 0.01 µM (active) | 0.0673 µM (active) | 0.157 µM (active) | < 0.01 µM (active) | 0.0169 | < 0.01 µM (active) | < 0.01 µM (active) | < 0.01 µM (active) | < 0.0113 µM (active) | 0.166 µM (active) | < 0.01 µM (active) | < 0.01 µM (active) | 0.0199 µM (active) | 0.0159 µM (active) | < 0.01 µM (active) | < 0.0113 µM (active) | < 0.01 µM (active) | < 0.011 µM (active) | 0.0579 µM (active) | 0.026 µM (active)
11 | CC(NNC(=O)c1cc[n+]([BH2-]C#N)cc1)c1cccc(C(F)(F)F)c1 (stereo not given) | > 100 µM (inactive) | 26.7 µM (inactive) | > 100 µM (inactive) | 73.3 µM (inactive) | 68.5 | > 100 µM (inactive) | 40.2 µM (inactive) | > 100 µM (inactive) | > 100 µM (inactive) | 86.9 µM (inactive) | 52.1 µM (inactive) | 34.5 µM (inactive) | > 100 µM (inactive) | 77.8 µM (inactive) | 88.7 µM (inactive) | > 100 µM (inactive) | 47.8 µM (inactive) | 44 µM (inactive) | 50.2 µM (inactive) | > 100 µM (inactive)
12 | CC1C(c2ccc3c(c2)OCO3)c2cc3c(cc2OC1N1CCOCC1)OCO3 (stereo not given) | 28.8 µM (inactive) | 49.9 µM (inactive) | 32.6 µM (inactive) | 20.3 µM (inactive) | 19.3 | 16.5 µM (inactive) | 13.6 µM (inactive) | 18.4 µM (inactive) | 18.2 µM (inactive) | 26.6 µM (inactive) | 10.6 µM (inactive) | 13.8 µM (inactive) | 37.3 µM (inactive) | 29.2 µM (inactive) | 19.1 µM (inactive) | 31.6 µM (inactive) | 7.41 µM (inactive) | 25.9 µM (inactive) | 24 µM (inactive) | 28.8 µM (inactive)
13 | O=C1c2ccccc2CC12Cc1ccccc1C2 | 70 µM (inactive) | > 100 µM (inactive) | 63.1 µM (inactive) | > 100 µM (inactive) | 49.7 | 31.4 µM (inactive) | 36.2 µM (inactive) | 66.7 µM (inactive) | 18.5 µM (inactive) | 37.3 µM (inactive) | 6.12 µM (inactive) | 16.6 µM (inactive) | 20.7 µM (inactive) | 57.9 µM (inactive) | 60.7 µM (inactive) | 36 µM (inactive) | 34.8 µM (inactive) | 42 µM (inactive) | > 100 µM (inactive) | 16.7 µM (inactive)
14 | N#CC(NCCc1ccccc1)c1ccccc1 (stereo not given) | > 100 µM (inactive) | > 100 µM (inactive) | > 100 µM (inactive) | > 100 µM (inactive) | > 100 | > 100 µM (inactive) | > 100 µM (inactive) | > 100 µM (inactive) | > 100 µM (inactive) | > 100 µM (inactive) | > 100 µM (inactive) | > 100 µM (inactive) | > 100 µM (inactive) | > 100 µM (inactive) | > 100 µM (inactive) | > 100 µM (inactive) | > 10 µM (inactive) | > 100 µM (inactive) | > 100 µM (inactive) | > 100 µM (inactive)
